The source of these data is EPA's ToxRefDB 2.

The subject of series [1] is rat. The conditions noted are these: Combined chronic toxicity/carcinogenicity; sprague dawley; Oral; Feed; dose end: 104 week; group: systemic; systemic / in life observation / body weight / body weight + systemic / in life observation / body weight / body weight gain + systemic / in….
For series [2], the system named is rat. Conditions: Subchronic oral toxicity in rodents, sprague dawley, Feed, dose end: 13 week, group: systemic.
The test system of series [3] is mouse. The conditions noted are these: Carcinogenicity; cd1; Oral; Feed; dose end: 78 week; group: systemic; systemic / in life observation / body weight / body weight + systemic / in life observation / body weight / body weight gain.
Series [4] has as its system rat. Conditions: Developmental neurotoxicity study, sprague dawley, Oral, Gavage/Intubation, dose end: 105 PND, group: cannot be grouped.
For series [5], the system named is rat. Conditions: Combined chronic toxicity/carcinogenicity, sprague dawley, Oral, Feed, dose end: 104 week, group: systemic.
Series [6] concerns rat. The conditions noted are these: Multigenerational reproductive toxicity study, sprague dawley, Oral, Feed, dose end: 2 generation, group: parental.
Series [7] concerns rat. The conditions noted are these: Subchronic oral toxicity in rodents, sprague dawley, Feed, dose end: 90 day, group: systemic, systemic / pathology gross / sperm measure / sperm count + systemic / pathology gross / sperm measure / sperm motility.
In series [8] the test system is rat. The conditions noted are these: Fertility (Segment I), Oral, Gavage/Intubation, dose end: 6 GD.
Series [9] has as its system rat. The conditions noted are these: Fertility (Segment I); sprague dawley; Oral; Gavage/Intubation; dose end: 63 day; group: parental; systemic / in life observation / body weight / body weight + systemic / in life observation / body weight / body weight gain + systemic / in….
The test system of series [10] is rat. Conditions: Sub-acute repeat dose toxicity, sprague dawley, Oral, Gavage/Intubation, dose end: 1 month, group: systemic.
Series [11] concerns mouse. The conditions noted are these: Subchronic oral toxicity in rodents, b6c3f1, Gavage/Intubation, dose end: 94 day, group: systemic, systemic / pathology microscopic / liver / vacuolization cytoplasmic + systemic / clinical chemistry / alkaline phosphatase (alp/alk) / ….
Where [12] appears, read: systemic / in life observation / body weight / body weight + systemic / in life observation / body weight / body weight gain.
Where [13] appears, read: systemic / in life observation / body weight / body weight + systemic / in life observation / body weight / body weight gain + systemic / in….
Setting [14] is: developmental / developmental landmark / eye opening / eye opening + developmental / developmental landmark / incisor eruption / incisor ….
The mark [15] stands for this setting: developmental / developmental landmark / incisor eruption / incisor eruption + developmental / developmental landmark / eye opening / eye ….
Setting [16] is: systemic / in life observation / body weight / body weight gain + systemic / in life observation / body weight / body weight.
[17] abbreviates: group: developmental, developmental / developmental malformation / bladder / [other].
The mark [18] stands for this setting: group: parental, systemic / in life observation / body weight / body weight.
Setting [19] is: systemic / hematology / hemoglobin distribution width (hdw) / hemoglobin distribution width (hdw) + systemic / hematology / platelet / ….

Molecules are shown by their SMILES.

On to `CCCCCCCCCCCC[N+](C)(C)Cc1ccccc1.[Cl-]`, for which the LEL in the series on rat [1] came to 88 mg/kg/day; in the series with rat [2] (systemic / in life observation / food consumption / food consumption + systemic / pathology gross / stomach / discolored), 31.2 mg/kg/day; with mouse [3], 229 mg/kg/day. Also, the LOAEL with rat [1] is 88 mg/kg/day; in the series with rat [2] (setting [12]) it was 62 mg/kg/day; in the series with mouse [3] it was 229 mg/kg/day. Moreover, the NEL in the series on rat [1] was determined as 44 mg/kg/day; with rat [2] (setting [13]), 6.3 mg/kg/day; with mouse [3], 73.4 mg/kg/day. Besides, the NOAEL in the series with rat [1] is 44 mg/kg/day; with rat [2] (setting [13]), 31.2 mg/kg/day; in the series on mouse [3], 73.4 mg/kg/day.
In the case of `CC(=O)OC/C=C(C)/C=C/C=C(C)/C=C/C1=C(C)CCCC1(C)C` [Retinol acetate], in the series on rat [4] (setting [14]), the LOAEL was > 34.4 mg/kg/day and the NOAEL is ≥ 34.4 mg/kg/day. In the series with rat [4] (setting [15]), the LEL is 8.6 mg/kg/day and the NEL was < 8.6 mg/kg/day.
On to `COC(=O)c1ccccc1S(=O)(=O)NC(=O)Nc1nc(C)nc(OC)n1` [Metsulfuron-methyl], for which, in the series on rat [5] (setting [12]), the LOAEL came to 250 mg/kg/day, the NEL stood at 1.25 mg/kg/day and the NOAEL came to 125 mg/kg/day. For the same molecule, the LEL in the series with rat [5] (systemic / in life observation / body weight / body weight gain + systemic / in life observation / body weight / body weight + systemic / …) stood at 25 mg/kg/day. Moreover, the LOAEL in the series on rat [6] (systemic / in life observation / body weight / body weight gain) is 250 mg/kg/day. In addition, in the series on rat [6] (setting [16]), the LEL worked out at 250 mg/kg/day, the NEL worked out at 25 mg/kg/day and the no observed adverse effect level (NOAEL) worked out at 25 mg/kg/day.
With `O=C(O)c1ccc(C(=O)O)cc1` [Terephthalic acid], in the series with rat [7], the LEL was determined as 5820 mg/kg/day, the LOAEL is > 5820 mg/kg/day, the NEL turned out to be 1180 mg/kg/day and the NOAEL is ≥ 5820 mg/kg/day.
With `CCN1CCC2(CC1)COc1cc3c(cc12)N(C(=O)c1ccc(-c2ccc(-c4nnc(C)o4)cc2C)cc1)CC3.Cl`, the LEL came to 30 mg/kg/day with rat [8] (setting [17]), 30 mg/kg/day with rat [8] (setting [18]), 30 mg/kg/day with rat [9] and 10 mg/kg/day in the series with rat [10] (systemic / hematology / platelet / platelet + systemic / hematology / reticulocyte / reticulocyte). For the same molecule, the LOAEL in the series on rat [8] (setting [17]), in the series with rat [8] (setting [18]), with rat [9] and in the series on rat [10] (setting [19]) was > 30 mg/kg/day each time. Further, the NEL in the series on rat [8] (setting [17]) amounted to 10 mg/kg/day; in the series with rat [8] (setting [18]), 10 mg/kg/day; in the series on rat [9] it was 10 mg/kg/day; with rat [10] (setting [19]) it was 3 mg/kg/day. Moreover, the NOAEL with rat [8] (setting [17]), with rat [8] (setting [18]), with rat [9] and in the series with rat [10] (setting [19]) was ≥ 30 mg/kg/day in each case.
As to `CO[C@H]1/C=C/O[C@@]2(C)Oc3c(C)c(O)c4c(O)c(c(/C=N/N5CCN(C)CC5)c(O)c4c3C2=O)NC(=O)/C(C)=C\C=C\[C@H](C)[C@H](O)[C@@H](C)[C@@H](O)[C@@H](C)[C@H](OC(C)=O)[C@@H]1C` [Rifampicin], in the series with mouse [11], the LEL is 100 mg/kg/day, the LOAEL was determined as 100 mg/kg/day, the NEL is < 100 mg/kg/day and the NOAEL is < 100 mg/kg/day.

In general, LOAEL refers to the lowest tested level that showed an adverse finding. Usually NOAEL stands for the highest tested level that showed no adverse finding.
